According to publication PMC12113339, “Miltefosine analogues with comparable antileishmanial activity and significantly reduced macrophage cytotoxicity” (Memórias do Instituto Oswaldo Cruz, 2025):
Like-named read-outs stand apart in the source and are kept apart here.

Assays:
[1] = Macrophage cytotoxicity (MTT cell viability); format: cell-based, murine; settings: mouse, J774.A1 macrophages, J774A.1 cells
Method: (§1) Cells - Leishmania (L.) amazonensis (MHOM/BR/75/Josefa) and green fluorescent protein (GFP)-labelled L. amazonensis (IFLA/BR/67/PH8) reference strains in their promastigote form were grown in 24-well microtiter plates containing 2 mL of Grace’s insect medium supplemented with 20% heat-inactivated FCS, 2 mM L-glutamine, 100 U/mL penicillin, and 100 µg/mL streptomycin, as previously described.[11] ^, [12] The promastigotes were collected for the experiments when the highest proportion of infective metacyclics was reached (6th day of culture). The J774.A1 murine macrophage cell line was obtained from the cell bank of Rio de Janeiro (NCE/UFRJ). Macrophages were cultured in RPMI-1640 medium supplemented with 10% FCS, 2 mM L-glutamine, 100 U/mL penicillin, and 100 μg/mL streptomycin at 36.5 °C in a humidified incubator containing 5% CO2.
(§2) In vitro assays of antileishmanial activity and macrophage cytotoxicity - Parasites at different cell concentrations (5 x 10^6, 1 x 10^7, 1 x 10^8, and 1 x 10^9 cells/mL), or J774.A1 macrophages at 1 x 10^6 cells/mL, were treated with increasing concentrations of MIL or its analogues, TC387, TC388, and TC437 (Fig. 1), which were initially diluted in an ethanol/DMSO mixture (1:1, v/v) at 25 or 250 mg/mL and then diluted in culture medium supplemented with 10% FCS. Promastigote or macrophage samples (100 µL) containing six different concentrations of the compounds (5-160 μM for promastigotes and 200-6,400 μM for macrophages) were prepared in 96-well microtiter plates and incubated for 24 h at 26 °C for promastigotes or 36.5 °C for macrophages. Cell viability was quantified by measuring the reduction of MTT to formazan by mitochondrial reductases. Formazan absorbance was read on the enzyme-linked immunosorbent assay (ELISA) reader at 550 nm, and the half maximal effective concentration (EC50) or half-maximal cytotoxic concentration (CC50) values were determined based on the best fit of the sigmoidal curve on the absorbance data versus the compound concentrations.

[2] = test system: L. amazonensis promastigotes; parameters: method as in Scariot et al. 13; settings: ref Scariot et al. 13; cited from earlier work
[3] = test system: GFP-labelled L. amazonensis amastigotes within J774.A1 macrophages; experiment: microbe, parasite or virus in culture; format: cell-based, Leishmania amazonensis; settings: for Minimum concentration required to significantly reduce the percentage of macrophages infected with GFP-expressing amastigotes / Minimum concentration required to significantly decrease the mean fluorescence intensity: 24 h of treatment; for Minimum concentration required to significantly reduce the percentage of macrophages infected with GFP-expressing amastigotes: % GFP+ cells; for Minimum concentration required to significantly decrease the mean fluorescence intensity: MFI; for SI (CC50/EC50), amastigotes: CC50 J774A.1 / EC50 amastigotes; for EC50: Leishmania amazonensis, intracellular amastigotes in J774.A1, 24 h treatment, % infected cells, read-out: EC50 ± SD, amastigotes
Method: J774.A1 macrophage infection - GFP-labelled L. amazonensis was cultivated in Grace’s insect medium supplemented as described above. The GFP-labelled parasites were selected using 30 μg/mL hygromycin B.[21] J774.A1 macrophages were cultured in RPMI-1640 medium supplemented with 10% FCS, 2 mM L-glutamine, 11 mM sodium bicarbonate, 100 U/mL penicillin, and 100 µg/mL streptomycin. A sample with 4 x 10^6 cells/mL was infected with GFP-L. amazonensis (five parasites/cell) from six-day cultures for 24 h. Following infection, the cells were washed with 1x phosphate-buffered saline (PBS) to remove non-internalised parasites and cultured for an additional 24 h in the presence of MIL or its analogues at different concentrations (7.5-240 μM).
After cooling to ~4 °C, samples were collected by mechanical harvesting of adherent cells, washed twice with 1x PBS, and fixed with 1% paraformaldehyde for flow cytometry analysis using a BD Accuri™ C6 Flow Cytometry instrument (BD Bioscience, San Jose, CA, USA). Macrophages were selected by forward versus side scatter (FSC vs SSC). The data were analysed using FCS Express software (De Novo Software^TM, Glendale, CA, USA). The percentage of cells expressing GFP^+ (% infected cells) and mean fluorescence intensity (estimated amount of internalised parasites) were evaluated. The mean EC50 values were determined based on the best-fit sigmoidal curve plotted for infection percentage versus compound concentration, considering the maximum and minimum percentages of infected cells.

[4] = test system: plasma membranes of Leishmania amazonensis promastigotes; experiment: Best fit of eq. 3 to EC50 versus cell concentration (biophysical parameters); format: cell-based; settings: for EC50: Leishmania amazonensis, read-out: cw50, concentration in the aqueous phase that inhibits parasite growth by half; for cm50, concentration in the membrane that inhibits parasite growth by half: from KM/W and cw50
Text: In cell suspension assays, the concentration of lipophilic compounds within the membrane can exceed that in the aqueous medium by over 10,000-fold (Log KM/W > 4). In a well-diluted cell suspension, the quantity of compound associated with the membrane can be negligible due to the relatively small membrane volume; consequently, the compound predominantly resides in the aqueous phase, rendering its EC50 value effectively equivalent to its concentration in that phase, denoted as cw50. However, as cell concentration increases, the enhanced membrane volume results in a significant elevation of the EC50 compared to cw50. The equation that describes the variation of MIL EC50 values in relation to cell concentration in the assay has been derived and is expressed as follows:[10] ^, [11]
EC50=[(Vmc. cc)^-1+ KM/W/ (Vmc . cc)^-1+1)] cw50 (3)
Where Vmc is the estimated cell membrane volume for an L. amazonensis promastigote, previously estimated as 8.17 x 10^-13 mL,[11] and cc is the number of cells per mL. The parameters KM/W and cw50 are covariant in eq. 3, and their values can be determined as best-fit parameters of eq. For very dilute samples, the plasma membrane content is small, and the EC50 and cw50 values are practically the same; assuming in eq. 3 that (Vmc . cc)^-1 >> KM/W, the EC50 = ~cw50. For high concentrations of cells, a remarkable amount of the compound goes to the membrane, and the EC50 value is much higher than the cw50 value. The cm50 value can also be determined from the […] relationship.

[5] = test system: amastigotes internalised within J774.A1 macrophages; parameters: method as in Scariot et al. 13; settings: ref Scariot et al. 13; cited from earlier work
[6] = test system: Leishmania amazonensis promastigotes; experiment: microbe, parasite or virus in culture; format: cell-based; settings: for SI (CC50/EC50), promastigotes: CC50 J774A.1 / EC50 promastigotes; for EC50: Leishmania amazonensis
Method: as §1, §2

[7] = Haemolytic potential in PBS; format: cell-based; settings: human, washed erythrocytes in PBS, haematocrit 2%, 2 h at 36.5 °C, read-out: Erythrocytes in PBS - % haemolysis; for hemolysis at 2 h, 6.6 mM: 6.6 mM (22 times 300 µM)
Method: To assess the haemolytic potential in PBS, blood was initially diluted threefold in PBS and centrifuged at 800 × g for 10 min at 4 °C. Plasma and white blood cells were removed, and the remaining cells were resuspended in PBS. Erythrocytes were washed twice in PBS, discarding the supernatant after centrifugation. Erythrocytes were then added to a micellar suspension of the compounds at various concentrations in PBS (0.3-10 mM), achieving a final haematocrit of 2%. Samples were incubated for 2 h at 36.5 ± 1 °C, and haemolysis percentages and HC50 values were determined as described above.

[8] = test system: whole blood; experiment: Haemolytic potential in whole blood; format: cell-based, human; settings: 7.5 mM, 24 h at 7 °C
Method: (§3) Haemolytic potential in whole blood and PBS - Blood was collected from a university blood bank, adhering to an approved protocol by the Ethics Committee for Human and Animal Medical Research at Hospital das Clínicas, Universidade Federal de Goiás (CAAE: 81316417.1.0000.5078). To evaluate the haemolytic potential of MIL and its analogues (TC387, TC388, and TC437) in whole blood, plasma was separated by centrifugation at 1800 × g for 10 min at 4 °C. Next, 58 µL of plasma samples containing different concentrations of the compounds were prepared (in this case the compounds were diluted directly in blood plasma to final concentrations in the range of 2.5-12.5 mM), and 42 µL of the blood cells (100%) were added to each sample to reconstitute the whole blood. Samples were incubated for 24 h at 7 ± 1 °C, and several agitations were made in this period. After incubation, 1.4 mL PBS was added to each sample, and the tubes were centrifuged (3500 x g for 10 min). The percentage of haemolysis was determined based on the absorbance of haemoglobin in the supernatant at 540 nm relative to the sample without treatment (control). The compound concentration required for 50% haemolysis (HC50) was calculated by fitting the percentage of haemolysis versus compound concentration data to a sigmoidal curve.

[9] = Haemolytic potential in whole blood; format: cell-based, human; settings: human, whole blood reconstituted from plasma and blood cells, 24 h at 7 °C, read-out: Whole blood - % haemolysis
Method: as §3

[10] = best-fit parameter of eq. 3, equivalent to EC50 for diluted samples
[11] = 24 h, read-out: EC50 ± SD, promastigotes, 24 h at 26 °C, MTT

SMILES	CC50 at 24 h [1] [µM]	Minimum concentration required to significantly reduce the percentage of macrophages infected with GFP-expressing amastigotes [3] [µM]	Minimum concentration required to significantly decrease the mean fluorescence intensity [3] [µM]	SI (CC50/EC50), amastigotes [3]	EC50 [3] [µM]	EC50 [4, 10] [µM]	cm50, concentration in the membrane that inhibits parasite growth by half [4]	SI (CC50/EC50), promastigotes [6]	EC50 [6, 11] [µM]	hemolysis at 2 h, 3.3 mM [7] [%]	hemolysis at 2 h, 6.6 mM [7] [%]	hemolysis at 2 h, 10 mM [7] [%]	hemolysis at 24 h, 7.5 mM [9] [%]	hemolysis at 24 h, 10 mM [9] [%]	also measured
CCCCCCCCCCCCCCCCOP(=O)([O-])OCC[N+](C)(C)C [MIL, hexadecylphosphocholine, reference compound]	77 ± 23	15	15	5	17 ± 3	9.4 ± 1.2	0.81 ± 0.07 (B) M	around 6	13 ± 3	–	–	–	–	–	IC50 [2]: 21 µM; IC50 [5]: 2 µM; SI (CC50/EC50), promastigotes ([6]; listed as Miltefosine): 6; EC50 ([6]; read-out: EC50, promastigotes, cell concentration 1 x 10^7 parasites/mL): ~13 µM; EC50 ([6]; read-out: EC50, promastigotes, cell concentration 1 x 10^9 parasites/mL): ~660 µM
COc1cccc(CCCCCCCCOP(=O)([O-])OCC[N+](C)(C)C)c1 [TC387]	956 ± 277	7.5	7.5	80	12 ± 3	27.2 ± 2.9	0.53 ± 0.09 (A) M	34	27 ± 9	26.2	< 50	60.4	20.5	75.3	Whole blood - % haemolysis [8]: 22.5 ± 3.7%
COC(=O)c1c(CCCCCCCCOP(=O)([O-])OCC[N+](C)(C)C)cccc1OC [TC388]	1630 ± 404	7.5	7.5	–	10 ± 2	38.9 ± 3.8	0.50 ± 0.13 (A) M	42	39 ± 11	8.5	–	25.3	–	14.5	hemolysis at 24 h, 12.5 mM ([9]; 12.5 mM): 24.2 ± 6.4%
COc1cc(CCCCCCCCOP(=O)([O-])OCC[N+](C)(C)C)cc(OC)c1 [TC437]	692 ± 212	15	7.5	43	16 ± 3	–	0.56 ± 0.11 (A) M	29	24 ± 7	29.8	< 50	65.4	40.6 ± 7.4	92.5	EC50 [4]: 22.8 ± 3.7 µM
